Data taken from patent EP4548976A1, “ANTIVIRAL COMPOUNDS AND COMPOSITIONS THEREFROM” (Consejo Superior De Investigaciones Científicas, priority 2023, dated 2025).

Tests used:
in vitro = conditions: human
[1] = system: SARS-CoV-2 stock strain NL/2020; assay: Antiviral activity in A549-ACE2 cells using viral antigen quantitation (SARS-CoV-2 N protein immunofluorescence); assay type: cell-based; conditions: Severe acute respiratory syndrome coronavirus 2, MOI 0.005, 48 h; for EC50: concentration reducing SARS-CoV-2 infection efficiency by 50% vs vehicle; for EC90: concentration reducing SARS-CoV-2 infection efficiency by 90% vs vehicle

Row | Compound | CC50 (in vitro) | EC50 [1] | EC90 [1]
1 | COC(=O)c1cc(-c2ccc3[nH]cnc3c2)ccc1NC(C#N)[C@H](Cc1c[nH]c2ccccc12)NC(=O)OC(C)(C)C (mixture of isomers) [Example 15, Methyl 5-(1H-benzo[d]imidazol-5-yl)-2-(((1RS,2S)-2-((tert-butoxycarbonyl)amino)-1-cyano-3-(1H-indol-3-yl)propyl)amino)benzoate] | 50 µM | 1 µM | 4 µM
2 | COC(=O)c1cc(-c2cnn(Cc3ccccc3)c2)ccc1NC(C#N)[C@H](Cc1c[nH]c2ccccc12)NC(=O)OC(C)(C)C (mixture of isomers) [Example 17, Methyl 5-(1-benzyl-1H-pyrazol-4-yl)-2-(((1RS,2S)-2-((tert-butoxycarbonyl)amino)-1-cyano-3-(1H-indol-3-yl)propyl)amino)benzoate] | > 50 µM | 1 µM | 2 µM
3 | COC(=O)c1cc(-c2ccc3cc[nH]c3c2)ccc1NC(C#N)[C@H](Cc1c[nH]c2ccccc12)NC(=O)OC(C)(C)C (mixture of isomers) [Example 11, Methyl 2-(((1RS,2S)-2-((tert-butoxycarbonyl)amino)-1-cyano-3-(1H-indol-3-yl)propyl)amino)-5-(1H-indol-6-yl)benzoate] | 30 µM | 4 µM | 8 µM
4 | COC(=O)c1cc(-c2cc3ccccc3o2)ccc1NC(C#N)[C@H](Cc1c[nH]c2ccccc12)NC(=O)OC(C)(C)C (mixture of isomers) [Example 12, Methyl 5-(benzofuran-2-yl)-2-(((1RS,2S)-2-((tert-butoxycarbonyl)amino)-1-cyano-3-(1H-indol-3-yl)propyl)amino)benzoate] | > 50 µM | 1.85 µM | 5 µM
5 | COC(=O)c1cc(C2=CCCCC2)ccc1NC(C#N)[C@H](Cc1c[nH]c2ccccc12)NC(=O)OC(C)(C)C (mixture of isomers) [Example 22, Methyl 4-(((1RS,2S)-2-((tert-butoxycarbonyl)amino)-1-cyano-3-(1H-indol-3-yl)propyl)amino)-2',3',4',5'-tetrahydro-[1,1'-biphenyl]-3-carboxylate] | 32 µM | 6 µM | 9 µM
6 | CC(C)(C)OC(=O)N[C@H](Cc1c[nH]c2ccccc12)C(C#N)Nc1ccc(Br)cc1C(=O)c1ccccc1 (mixture of isomers) [Example 26, tert-Butyl ((1RS,2R)-1-((2-benzoyl-4-bromophenyl)amino)-1-cyano-3-(1H-indol-3-yl)propan-2-yl)carbamate] | 50 µM | 6 µM | 28 µM
7 | COC(=O)c1cc(-c2ccc3[nH]ncc3c2)ccc1NC(C#N)[C@H](Cc1c[nH]c2ccccc12)NC(=O)OC(C)(C)C (mixture of isomers) [Example 16, Methyl 2-(((1RS,2S)-2-((tert-butoxycarbonyl)amino)-1-cyano-3-(1H-indol-3-yl)propyl)amino)-5-(1H-indazol-5-yl)benzoate] | 10 µM | 6 µM | 9 µM
8 | COC(=O)c1cc(-c2ccc3[nH]ccc3c2)ccc1NC(C#N)[C@@H](Cc1c[nH]c2ccccc12)NC(=O)OC(C)(C)C (mixture of isomers) [Example 27, Methyl 2-(((1RS,2R)-2-((tert-butoxycarbonyl)amino)-1-cyano-3-(1H-indol-3-yl)propyl)amino)-5-(1H-indol-5-yl)benzoate] | 35 µM | 7 µM | 9 µM
9 | COC(=O)c1cc(-c2ccc(N3CCOCC3)cc2)ccc1NC(C#N)[C@H](Cc1c[nH]c2cccc(Br)c12)NC(=O)OC(C)(C)C (mixture of isomers) [Example 4, Methyl 4-(((1RS,2S)-3-(4-bromo-1H-indol-3-yl)-2-((tert-butoxycarbonyl)amino)-1-cyanopropyl)amino)-4'-morpholino-[1,1'-biphenyl]-3-carboxylate] | > 50 µM | 2 µM | 7.5 µM
10 | COC(=O)c1cc(-c2ccc3[nH]ccc3c2)ccc1NC(C#N)[C@H](Cc1c[nH]c2ccccc12)NC(=O)OC(C)(C)C (mixture of isomers) [Example 9, Methyl 2-(((1RS,2S)-2-((tert-butoxycarbonyl)amino)-1-cyano-3-(1H-indol-3-yl)propyl)amino)-5-(1H-indol-5-yl)benzoate] | 50 µM | < 0.4 µM | 5 µM
11 | COC(=O)c1cc(-c2cnn(CCN3CCOCC3)c2)ccc1NC(C#N)[C@H](Cc1c[nH]c2ccccc12)NC(=O)OC(C)(C)C (mixture of isomers) [Example 25, Methyl 2-(((1RS,2S)-2-((tert-butoxycarbonyl)amino)-1-cyano-3-(1H-indol-3-yl)propyl)amino)-5-(1-(2-morpholinoethyl)-1H-pyrazol-4-yl)benzoate] | > 50 µM | 6 µM | 9 µM
12 | COC(=O)c1cc(-c2ccc3c(ccn3C(=O)OC(C)(C)C)c2)ccc1NC(C#N)[C@H](Cc1c[nH]c2ccccc12)NC(=O)OC(C)(C)C (mixture of isomers) [Example 19, tert-Butyl 5-(4-(((1RS,2S)-2-((tert-butoxycarbonyl)amino)-1-cyano-3-(1H-indol-3-yl)propyl)amino)-3-(methoxycarbonyl)phenyl)-1H-indole-1-carboxylate] | > 50 µM | 6 µM | 31 µM
13 | COC(=O)c1cc(-c2ccc(N3CCOCC3)cc2)ccc1NC(C#N)[C@H](Cc1c[nH]c2cc(Br)ccc12)NC(=O)OC(C)(C)C (mixture of isomers) [Example 2, Methyl 4-(((1RS,2S)-3-(6-bromo-1H-indol-3-yl)-2-((tert-butoxycarbonyl)amino)-1-cyanopropyl)amino)-4'-morpholino-[1,1'-biphenyl]-3-carboxylate] | > 50 µM | 1.6 µM | 6 µM
14 | COC(=O)c1cc(-c2ccc(N3CCOCC3)cc2)ccc1NC(C#N)[C@H](Cc1c[nH]c2ccc(-c3ccccc3)cc12)NC(=O)OC(C)(C)C (mixture of isomers) [Example 5, Methyl 4-(((1RS,2S)-2-((tert-butoxycarbonyl)amino)-1-cyano-3-(5-phenyl-1H-indol-3-yl)propyl)amino)-4'-morpholino-[1,1'-biphenyl]-3-carboxylate] | > 50 µM | 4 µM | 13 µM
15 | C#Cc1ccc(-c2cccc3[nH]cc(C[C@H](NC(=O)OC(C)(C)C)C(C#N)Nc4ccc(-c5ccc(N6CCOCC6)cc5)cc4C(=O)OC)c23)cc1 (mixture of isomers) [Example 6, Methyl 4-(((1RS,2S)-2-((tert-butoxycarbonyl)amino)-1-cyano-3-(4-(4-ethynylphenyl)-1H-indol-3-yl)propyl)amino)-4'-morpholino-[1,1'-biphenyl]-3-carboxylate] | > 50 µM | 8 µM | 20 µM
16 | COC(=O)c1cc(-c2cccc3[nH]ncc23)ccc1NC(C#N)[C@H](Cc1c[nH]c2ccccc12)NC(=O)OC(C)(C)C (mixture of isomers) [Example 30, Methyl 2-(((1RS,2S)-2-((tert-butoxycarbonyl)amino)-1-cyano-3-(1H-indol-3-yl)propyl)amino)-5-(1H-indazol-4-yl)benzoate] | 10 µM | 1 µM | 2 µM
17 | CC(C)(C)OC(=O)N[C@@H](Cc1c[nH]c2ccccc12)C(C#N)Nc1ccccc1C(=O)N1CCCCCC1 (mixture of isomers) [Example 31, tert-Butyl ((1RS,2S)-1-((2-(azepane-1-carbonyl)phenyl)amino)-1-cyano-3-(1H-indol-3-yl)propan-2-yl)carbamate] | 36 µM | 8 µM | 39 µM
18 | COC(=O)c1cc(C2=CCN(C(=O)OC(C)(C)C)CC2)ccc1NC(C#N)[C@H](Cc1c[nH]c2ccccc12)NC(=O)OC(C)(C)C (mixture of isomers) [Example 14, tert-Butyl 4-(4-(((1RS,2S)-2-((tert-butoxycarbonyl)amino)-1-cyano-3-(1H-indol-3-yl)propyl)amino)-3-(methoxycarbonyl)phenyl)-3,6-dihydropyridine-1(2H)-carboxylate] | > 50 µM | 7 µM | 16 µM
19 | COC(=O)c1cc(-c2ccc(N3CCOCC3)cc2)ccc1NC(C#N)[C@H](Cc1c[nH]c2c(Br)cccc12)NC(=O)OC(C)(C)C (mixture of isomers) [Example 3, Methyl 4-(((1RS,2S)-3-(7-bromo-1H-indol-3-yl)-2-((tert-butoxycarbonyl)amino)-1-cyanopropyl)amino)-4'-morpholino-[1,1'-biphenyl]-3-carboxylate] | > 50 µM | 3.5 µM | 8 µM
20 | COC(=O)c1cc(-c2ccc(NC(C)=O)nc2)ccc1NC(C#N)[C@H](Cc1c[nH]c2ccccc12)NC(=O)OC(C)(C)C (mixture of isomers) [Example 29, Methyl 5-(6-acetamidopyridin-3-yl)-2-(((1RS,2S)-2-((tert-butoxycarbonyl)amino)-1-cyano-3-(1H-indol-3-yl)propyl)amino)benzoate] | > 50 µM | 3 µM | 8 µM
21 | COC(=O)c1cc(-c2cc3ccccc3s2)ccc1NC(C#N)[C@H](Cc1c[nH]c2ccccc12)NC(=O)OC(C)(C)C (mixture of isomers) [Example 13, Methyl 5-(benzo[b]thiophen-2-yl)-2-(((1RS,2S)-2-((tert-butoxycarbonyl)amino)-1-cyano-3-(1H-indol-3-yl)propyl)amino)benzoate] | 13 µM | 1.85 µM | 5 µM
